Results on 5 molecules are retold here after paper PMC5969224, “Lysine‐241 Has a Role in Coupling 2OG Turnover with Substrate Oxidation During KDM4‐Catalysed Histone Demethylation” (Chembiochem, 2018).

The target of test [1] is T1, K241A KDM4A (Homo sapiens, UniProt O75164, K241A).
T1 construct: two recombinant variants of KDM4A (residues 1–359) in Escherichia coli BL21(DE3) cells; His6 (N); made in house; host or cells: Escherichia coli BL21(DE3)
T1 sequence (O75164 1-359 K241A): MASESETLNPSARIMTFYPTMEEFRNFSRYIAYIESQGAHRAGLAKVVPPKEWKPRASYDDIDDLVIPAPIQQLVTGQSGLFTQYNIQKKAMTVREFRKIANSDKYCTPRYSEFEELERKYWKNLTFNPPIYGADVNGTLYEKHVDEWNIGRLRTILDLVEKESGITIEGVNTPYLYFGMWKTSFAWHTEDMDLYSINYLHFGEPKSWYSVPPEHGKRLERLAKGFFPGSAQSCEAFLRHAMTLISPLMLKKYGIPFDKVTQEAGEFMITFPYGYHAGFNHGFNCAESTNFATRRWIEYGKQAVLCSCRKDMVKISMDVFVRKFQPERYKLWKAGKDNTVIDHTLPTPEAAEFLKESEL
Kind of test: 1H NMR substrate-uncoupled turnover of 2OG to succinate, K241A KDM4A. The class given is biochemical.
Description: (§1) Samples containing either WT or K241A (20.5 μM), an excess of 2OG (2 mM), ascorbate (1 mM), and ferrous iron (100 μM) in ammonium formate buffer (50 mM, pH 7.5) were subjected to ^1H NMR analysis at 1.5 min intervals over a 30‐min reaction. […] Experiments were then conducted in the presence of a histone H3 eight‐residue fragment peptide containing N ^ϵ‐trimethyllysine at position 9 (H3K9me3, sequence: ARKme3STGGK).
(§2) 1H NMR activity and inhibition assays: 20.5 µM KDM4A WT or KDM4A K241A was
(§3) mixed with 2 mM 2OG, 1 mM sodium L-ascorbate, and 100 µM ferrous iron (source
(§4) (NH4)2FeSO4.6H2O), in 50 mM ammonium formate buffer pH 7.5 10 % v/v D2O in an Ep-
(§5) pendorf tube, before being immediately transferred to an NMR tube and subjected to 1H NMR
(§6) analysis (700 MHz). For samples containing peptide substrate (sequence: ARKme3STGGK),
(§7) the peptide concentration was 300 µM. For inhibition assays, samples contained 100 µM in-
(§8) hibitor (JIB-04 or NOG) and the spectra were acquired after 35 min. Note: residual protein
(§9) buffer was also present. NMR analyses were carried out on a Bruker AVIII 700 spectrometer
(§10) equipped with an inverse TCI 1H/13C/15N cryoprobe and running TOPSPIN 3.2 software. The
(§11) deuterium signal was used as an internal lock signal and 1H chemical shifts are reported in
(§12) ppm relative to the solvent HDO resonance (δH 4.7 ppm).

The target in test [2] is T2, WT KDM4A (Homo sapiens, UniProt O75164).
T2 sequence (O75164 1-359): T1 sequence (O75164 1-359 K241A) with A241K
Kind of test: 1H NMR substrate-uncoupled turnover of 2OG to succinate, WT KDM4A. The class given is biochemical. On the set-up: two recombinant variants of KDM4A (residues 1–359) in Escherichia coli BL21(DE3) cells; His6 (N); made in house; host or cells: Escherichia coli BL21(DE3). To be noted: WT 20.5 μM, 2OG 2 mM, ascorbate 1 mM, Fe(II) 100 μM, 50 mM ammonium formate pH 7.5, no peptide; 1H NMR 700 MHz, 1.5 min intervals over 30 min.
Description: Samples containing either WT or K241A (20.5 μM), an excess of 2OG (2 mM), ascorbate (1 mM), and ferrous iron (100 μM) in ammonium formate buffer (50 mM, pH 7.5) were subjected to ^1H NMR analysis at 1.5 min intervals over a 30‐min reaction.
as §2, §3, §4, §5, §9, §10, §11
ppm relative to the solvent HDO resonance (δH 4.7 ppm). The solvent signal was reduced by

The target in test [3] is T2, WT KDM4A. To be noted: ref 12b; cited from earlier work.
Description: Studies were then carried out to evaluate the ability of the two KDM4A proteins to catalyse the demethylation of a histone peptide substrate.
Test [4] addresses T1, K241A KDM4A. Description: 1H NMR inhibition assay of uncoupled 2OG turnover, K241A KDM4A. The class given is biochemical. Conditions: K241A KDM4A 20.5 μM; inhibitor 100 μM; 2OG 2 mM; spectra after 35 min; pH 7.5.
Description: as §1, §2, §3, §4, §5, §6, §7, §8, §9, §10, §11, §12
Test [5] concerns the target T2, WT KDM4A. Kind of test: 1H CPMG NMR binding assay, WT KDM4A. On the set-up: two recombinant variants of KDM4A (residues 1–359) in Escherichia coli BL21(DE3) cells; His6 (N); made in house; host or cells: Escherichia coli BL21(DE3). Conditions: protein titrated into 40 µM JIB-04, 100 µM Fe(II), 50 mM ammonium formate pH 7.5, 10 % D2O, 600 MHz CPMG, quadratic fit, read-out: K D (JIB-04), provisional.
Description: as §1
(§13) NMR analyses were carried out on a Bruker AVIII 700 spectrometer
as §10, §11, §12
(§14) 1H CPMG NMR binding assays: Typical experimental parameters for Carr-Purcell-Mei-
(§15) boom-Gill (CPMG) NMR spectroscopy were as follows: total echo time, 40 ms; relaxation
(§16) delay, 2 s; and number of transients, 264. The PROJECT-CPMG sequence was applied
(§17) (90°x−[τ−180°y−τ−90°y−τ−180°y−τ]n−acq).[4] Water suppression was achieved by presatura-
(§18) tion. Protein (KDM4A WT or KDM4A K241A) was titrated into an assay mixture of 40 µM

In test [6] the target is T2, WT KDM4A. Description: 1H NMR inhibition assay of uncoupled 2OG turnover, WT KDM4A. Conditions: WT KDM4A 20.5 μM; inhibitor 100 μM; 2OG 2 mM; spectra after 35 min; pH 7.5. Details: two recombinant variants of KDM4A (residues 1–359) in Escherichia coli BL21(DE3) cells; His6 (N); made in house; host or cells: Escherichia coli BL21(DE3). Type of test: biochemical.
Description: as §1, §2, §3, §4, §5, §6, §7, §8, §9, §10, §11, §12
Test [7] deals with T1, K241A KDM4A. To be noted: mixed-mode inhibition of K241A; cited from earlier work. The text has this:
The overall MS, NMR spectroscopy and fluorescence polarisation studies imply that K241 has a role in KDM4A catalysis. […] Succinate formation by the K241A variant is stimulated by a histone fragment peptide, and a fluorescently labelled histone peptide bind ...

Test [8] has as its target T1, K241A KDM4A. Kind of test: 1H CPMG NMR binding assay, K241A KDM4A. To be noted: for binding to K241A versus WT KDM4A: CPMG NMR, K241A compared with WT.
Description: as §1, §13, §10, §11, §12, §14, §15, §16, §17, §18
The target in test [9] is T2, WT KDM4A. Kind of test: 1H NMR succinate formation in presence of H3 eight-residue peptide, WT KDM4A. The class given is biochemical. Details: two recombinant variants of KDM4A (residues 1–359) in Escherichia coli BL21(DE3) cells; His6 (N); made in house; host or cells: Escherichia coli BL21(DE3). To be noted: peptide 300 µM.
Description: as §1, §2, §3, §4, §5, §6, §7, §8, §9, §10, §11, §12
Test [10] addresses T1, K241A KDM4A. Kind of test: 1H NMR succinate formation in presence of H3 eight-residue peptide, K241A KDM4A. Type of test: biochemical. Conditions: K241A KDM4A 20.5 μM; peptide 300 µM; 2OG 2 mM; pH 7.5.
Description: as §1, §2, §3, §4, §5, §6, §7, §8, §9, §10, §11, §12
Test [11] has as its target T1, K241A KDM4A. Description: MALDI-TOF MS demethylation assay, K241A KDM4A. Type of test: biochemical. Conditions: K241A KDM4A 1 μM, peptide 100 μM, 2OG 100 μM, ascorbate 100 μM, Fe(II) 10 μM, 50 mM HEPES pH 7.5, 40 min, 37 °C.
Description: Initially, we produced two recombinant variants of KDM4A (residues 1–359) in Escherichia coli BL21(DE3) cells; a truncated wild‐type sequence (KDM4A WT), or a variant with an alanine in place of Lys241 (K241A KDM4A). Studies were then carried out to evaluate the ability of the two KDM4A proteins to catalyse the demethylation of a histone peptide substrate.
MALDI-TOF MS activity assays: 1 µM WT KDM4A or KDM4A K241A was incubated
with 100 µM disodium 2-oxoglutarate (2OG), 100 µM sodium L-ascorbate, 10 µM ferrous iron
(source (NH4)2FeSO4.6H2O) and 100 µM of 15-residue H3 fragment peptide containing the
requisite trimethyllysine mark (Table S1) in 50 mM HEPES buffer pH 7.5 for 40 min at 37 °C.
Assays were quenched with an equal vol-
ume of methanol, and the extent of the reaction determined using MALDI-TOF mass spec-
trometry (MS). Data were analysed using MASSLYNX 4.0 (Waters).

Substitutions are numbered along the chain they refer to. Entries after “also recorded” stand apart in the source; their conditions may differ. Square brackets hold non-standard residues; d marks the D form. Ends that are not written are not given here. Lys(Me3) = C[N+](C)(C)CCCC[C@H](N)C(=O)O

Turning to `O=C(O)CCC(=O)C(=O)O` [2OG, 2‐oxoglutarate], the “initial succinate formation rate” value at K241A KDM4A [1] (K241A 20.5 μM, 2OG 2 mM, ascorbate 1 mM, Fe(II) 100 μM, 50 mM ammonium formate pH 7.5, no peptide, 1H NMR 700 MHz, 1.5 min intervals over 30 min) turned out to be 1.55 µM/min; on WT KDM4A [2], 1.35 µM/min. In addition, the “succinate formation rates, WT versus K241A” value at K241A KDM4A [1] (in the absence of peptide, WT and K241A KDM4A compared) was “near identical”. The “K M (2OG)” value on WT KDM4A [3] is 26 ± 7 µM.

Regarding `Clc1ccc(N/N=C(\c2ccccc2)c2ccccn2)nc1` [JIB‐04], the “inhibition of uncoupled 2OG turnover” value at K241A KDM4A [4] and at WT KDM4A [6] was “inhibition was more pronounced” throughout. The Kd amounted to 22 ± 5 µM at WT KDM4A [5] and 7 ± 2 µM on K241A KDM4A [8] (K241A KDM4A, protein titrated into 40 µM JIB-04, 100 µM Fe(II), 50 mM ammonium formate pH 7.5, 10 % D2O, 600 MHz CPMG, quadratic fit, read-out: K D (JIB-04), provisional). Also, at K241A KDM4A [7], the mode of inhibition entry is on record as “mixed‐mode inhibition”. For the same molecule, the results for the “binding to K241A versus WT KDM4A” value at K241A KDM4A [8] and on K241A KDM4A [8] (listed as JIB-04) were “preferential binding of JIB‐04 to the K241A variant over the WT enzyme; also recorded: binding to K241A appears stronger” and “Binding appears stronger to the K241 variant than KDM4A WT”, respectively.

As for `O=C(O)CNC(=O)C(=O)O` [N‐oxalylglycine], the “inhibition of uncoupled 2OG turnover” value against K241A KDM4A [4] and at WT KDM4A [6] was “inhibited” each time.

Regarding “AR[Lys(Me3)]STGGK [histone H3 eight‐residue fragment peptide containing N ϵ‐trimethyllysine at position 9 (also called H3K9me3)]”, the “effect of peptide on succinate formation rate” value on WT KDM4A [9] (WT KDM4A 20.5 μM, 2OG 2 mM, pH 7.5) is “markedly increased”; at K241A KDM4A [10], “markedly increased”. Also, the “stimulation of succinate formation, WT versus K241A” value at WT KDM4A [9] (WT compared with K241A) is recorded as “Stimulation of succinate formation was greater for WT than for K241A KDM4A; also recorded: Succinate formation is stimulated by H3K9me3 peptide, but more readily with WT KDM4A”.

With “TPVKKKAR[Lys(Me3)]SAGAAK [H1.4K26 peptide]”, on K241A KDM4A [11], the “demethylation of histone peptide” value is recorded as “low‐level demethylation”.
